Measurements published in patent US6043275A, “3,7-dithiaprostanoic acid derivative” (Ono Pharmaceutical Co., Ltd., priority 1998, dated 2000).

Key:
mouse EP3 α = target: T1, mouse EP3 α (Mus musculus, UniProt P30557); experiment: Binding assay using cell expressing the prostanoid receptor subtypes (EP3α); settings: more polar isomer; membrane fraction of CHO cell expressing mouse EP3α; [3H]-PGE2 2.5 nM; 1 hour, room temperature; pH 6.0; read-out: dissociation constant Ki (μM) EP3α
T1 construct: expressed in transfected cells; host or cells: CHO cells (membrane fraction)
T1 sequence (P30557 1-365): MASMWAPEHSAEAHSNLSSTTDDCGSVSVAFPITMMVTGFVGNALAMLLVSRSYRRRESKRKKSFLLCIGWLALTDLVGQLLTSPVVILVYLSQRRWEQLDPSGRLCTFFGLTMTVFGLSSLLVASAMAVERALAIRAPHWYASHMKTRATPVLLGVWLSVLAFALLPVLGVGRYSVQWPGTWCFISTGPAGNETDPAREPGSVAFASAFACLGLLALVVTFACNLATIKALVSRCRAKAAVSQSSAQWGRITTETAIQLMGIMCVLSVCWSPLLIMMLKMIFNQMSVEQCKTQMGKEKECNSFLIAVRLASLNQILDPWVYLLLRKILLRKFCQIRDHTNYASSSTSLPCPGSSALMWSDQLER
Procedure: For example, in a standard laboratory test, such effects of the compound of the present invention were confirmed by binding assay using cell expressing the prostanoid receptor subtypes. (i) Binding assay using cell expressing the prostanoid receptor subtypes
The preparation of membrane fraction was carried out according to the method of Sugimoto et al [J. Biol. Chem. 267, 6463-6466 (1 992)], using CHO cell expressing prostanoid receptor subtype (mouse EP3 α, EP4).
The standard assay mixture containing membrane fraction (0.5 mg/ml), [^3 H]-PGE2 in a final volume of 200 μl was incubated for 1 hour at room temperature. The reaction was terminated by addition of 3 ml of ice-cold buffer. The mixture was rapidly filtered through a glass filter (GF/B). The radioactivity associated with the filter was measured by liquid scintillation counter.
Kd and Bmax values were determined from Scatchard plots [Ann. N.Y. Acad. Sci., 51, 660 (1949)]. Non-specific binding was calculated as the amount bond in the presence of an excess (2.5 μM) of unlabeled PGE2. In the experiment for competition of specific [^3 H]-PGE2 binding by the compounds of the present invention, [^3 H]-PGE2 was added at a concentration of 2.5 nM and the compound of the present invention was added at a various concentration.
The following buffer was used in all reactions. Buffer: 10 mM potassium phosphate (pH 6.0), 1 mM EDTA, 10 mM MgCl2, 0.1 M NaCl
The dissociation constant (Ki) of each compound was calculated by the following equation.

mouse EP4 = target: T2, mouse EP4 (Mus musculus, UniProt P32240); experiment: Binding assay using cell expressing the prostanoid receptor subtypes (EP4); settings: more polar isomer; membrane fraction of CHO cell expressing mouse EP4; [3H]-PGE2 2.5 nM; 1 hour, room temperature; pH 6.0; read-out: dissociation constant Ki (μM) EP4
T2 construct: expressed in transfected cells; host or cells: CHO cells (membrane fraction)
T2 sequence (P32240 whole entry): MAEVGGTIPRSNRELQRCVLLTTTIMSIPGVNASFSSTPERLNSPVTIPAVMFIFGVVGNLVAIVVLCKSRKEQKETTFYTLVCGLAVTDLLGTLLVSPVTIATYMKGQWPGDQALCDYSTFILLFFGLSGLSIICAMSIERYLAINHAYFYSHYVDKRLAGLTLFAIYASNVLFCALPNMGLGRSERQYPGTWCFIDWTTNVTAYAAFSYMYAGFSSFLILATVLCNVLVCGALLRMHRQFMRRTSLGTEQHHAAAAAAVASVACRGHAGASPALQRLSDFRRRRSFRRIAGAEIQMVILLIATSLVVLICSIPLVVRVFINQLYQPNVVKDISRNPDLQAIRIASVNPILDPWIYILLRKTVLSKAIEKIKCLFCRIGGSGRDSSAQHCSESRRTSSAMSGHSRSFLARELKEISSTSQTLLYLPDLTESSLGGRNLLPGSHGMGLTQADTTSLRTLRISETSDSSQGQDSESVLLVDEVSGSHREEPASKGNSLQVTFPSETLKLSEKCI
Procedure: For example, in a standard laboratory test, such effects of the compound of the present invention were confirmed by binding assay using cell expressing the prostanoid receptor subtypes. (i) Binding assay using cell expressing the prostanoid receptor subtypes The preparation of membrane fraction was carried out according to the method of Sugimoto et al [J. Biol. […] The standard assay mixture containing membrane fraction (0.5 mg/ml), [^3 H]-PGE2 in a final volume of 200 μl was incubated for 1 hour at room temperature. The reaction was terminated by addition of 3 ml of ice-cold buffer. The mixture was rapidly filtered through a glass filter (GF/B). The radioactivity associated with the filter was measured by liquid scintillation counter. Kd and Bmax values were determined from Scatchard plots [Ann. N.Y. Acad. Sci., 51, 660 (1949)]. Non-specific binding was calculated as the amount bond in the presence of an excess (2.5 μM) of unlabeled PGE2. In the experiment for competition of specific [^3 H]-PGE2 binding by the compounds of the present invention, [^3 H]-PGE2 was added at a concentration of 2.5 nM and the compound of the present invention was added at a various concentration. The following buffer was used in all reactions. Buffer: 10 mM potassium phosphate (pH 6.0), 1 mM EDTA, 10 mM MgCl2, 0.1 M NaCl The dissociation constant (Ki) of each compound was calculated by the following equation.

Structure (SMILES) | Ki (mouse EP3 α) | Ki (mouse EP4)
COc1ccc(CC(O)/C=C/[C@H]2[C@H](O)CC(=O)[C@@H]2SCCCSCC(=O)O)cc1Cl (single isomer, unassigned) [Example 2(l), 11 α, 15-dihydroxy-9-oxo-16-(4-methoxy-3-chlorophenyl)-17,18,19,20-tetranor-3,7-dithiaprost-13E-enoic acid] | 2.2 µM | 0.011 µM
C=CCOCc1cccc(CC(O)/C=C/[C@H]2[C@H](O)CC(=O)[C@@H]2SCCCSCC(=O)O)c1 (single isomer, unassigned) [Example 2(lll), 11 α, 15-dihydroxy-9-oxo-16-[3-(2-propenyloxymethyl)phenyl]-17,18,19,20-tetranor-3,7-dithiaprost-13E-enoic acid] | 6.2 µM | 0.0014 µM
O=C(O)CSCCCS[C@H]1C(=O)C[C@@H](O)[C@@H]1/C=C/C(O)Cc1cccc(COC2CCCCC2)c1 (single isomer, unassigned) [Example 2(mmm), 11 α, 15-dihydroxy-9-oxo-16-(3-cyclohexyloxymethylphenyl)-17,18,19,20-tetranor-3,7-dithiaprost-13E-enoic acid] | > 10 µM | 0.04 µM
O=C(O)CSCCCS[C@H]1C(=O)C[C@@H](O)[C@@H]1/C=C/C(O)Cc1cccc(-c2ccccc2)c1 (single isomer, unassigned) [Example 2(r), 11 α, 15-dihydroxy-9-oxo-16-(biphenyl-3-yl)-17,18,19,20-tetranor-3,7-dithiaprost-13E-enoic acid] | 0.97 µM | 0.001 µM
O=C(O)CSCCCS[C@H]1C(=O)C[C@@H](O)[C@@H]1/C=C/C(O)Cc1cccc(COc2ccccc2)c1 (single isomer, unassigned) [Example 2(rr), 11 α, 15-dihydroxy-9-oxo-16-(3-phenyloxymethylphenyl)-17,18,19,20-tetranor-3,7-dithiaprost-13E-enoic acid] | 1.9 µM | 0.0042 µM
COCc1cccc(C[C@H](O)/C=C/[C@H]2[C@H](O)CC(=O)[C@@H]2SCCCSCC(=O)O)c1 [Example 2, 11 α, 15 α-dihydroxy-9-oxo-16-(3-methoxymethylphenyl)-17,18,19,20-tetranor-3,7-dithiaprost-13E-enoic acid] | 1.2 µM | 0.0097 µM

These reach a lower Ki (mouse EP3 α). Values come first.

Ki (mouse EP3 α) | Ki (mouse EP4) | Structure (SMILES)
0.9 µM | 0.0065 µM | O=C(O)CSCCCS[C@H]1C(=O)C[C@@H](O)[C@@H]1/C=C/C(O)Cc1cccc(CCF)c1 (single isomer, unassigned) [Example 2(tt), 11 α, 15-dihydroxy-9-oxo-16-[3-(2-fluoroethyl)phenyl]-17,18,19,20-tetranor-3,7-dithiaprost-13E-enoic acid]
0.51 µM | 0.0099 µM | COc1cccc(CC(O)/C=C/[C@H]2[C@H](O)CC(=O)[C@@H]2SCCCSCC(=O)O)c1 (single isomer, unassigned) [Example 2(f), 11 α, 15-dihydroxy-9-oxo-16-(3-methoxyphenyl)-17,18,19,20-tetranor-3,7-dithiaprost-13E-enoic acid]
0.25 µM | 0.0028 µM | O=C(O)CSCCCS[C@H]1C(=O)C[C@@H](O)[C@@H]1/C=C/C(O)Cc1cccc(-c2ccco2)c1 (single isomer, unassigned) [Example 2(ii), 11 α, 15-dihydroxy-9-oxo-16-[3-(2-furyl)phenyl]-17,18,19,20-tetranor-3,7-dithiaprost-13E-enoic acid]
0.23 µM | 0.0003 µM | O=C(O)CSCCCS[C@H]1C(=O)C[C@@H](O)[C@@H]1/C=C/C(O)Cc1cccc(C#Cc2ccccc2)c1 (single isomer, unassigned) [Example 2(bbb), 11 α, 15-dihydroxy-9-oxo-16-(3-phenylethynylphenyl)-17,18,19,20-tetranor-3,7-dithiaprost-13E-enoic acid]
